Where a name gives a salt, the structure may show the parent alone.
Legend:
[1] = literature pilot study; cited from earlier work
[2] = cited patent; cited from earlier work

Cn1cc(C(=O)c2ccc(Cl)cc2)cc1C(=O)CN1CCOCC1 (as salt: hydrochloride) [13-1, 1-[4-(4-Chlorobenzoyl)-1-methyl-1H-pyrrol-2-yl]-2-(1-morpholino)-ethanone hydrochloride]
melting point: 264 to 267 °C

NCC1(CC(=O)O)CCCCC1 [Gabapentin]
effect on brush-induced and cold allodynia [1]: significantly effective | effect on detection and pain thresholds to static mechanical and hot stimuli [1]: no effect | reducing paroxysmal pain [1]: particularly effective | relief of ongoing spontaneous pain [1]: moderate and statistically significant relief

CC1(C)O[C@@H]2[C@@H](CO[C@@]3(COS(N)(=O)=O)OC(C)(C)O[C@@H]23)O1 [topiramate]
efficacy in an animal model of neuropathic pain [2]: evidence of pharmacological activity

Cn1cc(C(=O)c2ccc(Cl)cc2)cc1C(=O)CN1CCCCC1 [Example 12, 1-[4-(4-Chlorobenzoyl)-1-methyl-1H-pyrrol-2-yl]-2-(1-piperidinyl)-ethanone]
melting point: 129 to 130 °C

Cn1cc(C(=O)c2ccc(Cl)cc2)cc1C(=O)CN1CCCC1 (as salt: hydrochloride)
melting point: 265 to 267 °C

Cn1cc(C(=O)CN)cc1C(=O)c1ccc(Cl)cc1 (as salt: hydrochloride)
melting point: 290 °C (dec.)
